According to ChEMBL document CHEMBL4184210, “Optimization of novel monobactams with activity against carbapenem-resistant Enterobacteriaceae - Identification of LYS228” (Bioorg Med Chem Lett, 2018):
Converted amounts (≈) assume the structure as drawn.

Legend:
Escherichia coli [1] = test: Antimicrobial activity against Escherichia coli expressing beta-lactamase KPC-2 by CLSI broth microdilution method; format: functional
Escherichia coli [2] = test: Antimicrobial activity against Escherichia coli expressing beta-lactamase NDM-1 by CLSI broth microdilution method; format: functional
[3] = Chemical stability in pH 7.4 potassium phosphate buffer assessed as half life for compound hydrolysis at 37 degC by UPLC and mass spectrometry; format: physicochemical
Escherichia coli [4] = test: microbe, parasite or virus in culture
Escherichia coli [5] = test: microbe, parasite or virus in culture; remark: listed apart in the source
Escherichia coli [6] = test: microbe, parasite or virus in culture; remark: listed apart in the source
Escherichia coli [7] = test: microbe, parasite or virus in culture; remark: listed apart in the source
Escherichia coli [8] = test: microbe, parasite or virus in culture; remark: listed apart in the source
Escherichia coli [9] = test: microbe, parasite or virus in culture; remark: listed apart in the source
Escherichia coli [10] = test: microbe, parasite or virus in culture; remark: listed apart in the source
Escherichia coli [11] = test: microbe, parasite or virus in culture; remark: listed apart in the source
Escherichia coli [12] = test: microbe, parasite or virus in culture; remark: listed apart in the source
Escherichia coli [13] = test: microbe, parasite or virus in culture; remark: listed apart in the source
Escherichia coli [14] = test: microbe, parasite or virus in culture; remark: listed apart in the source
Escherichia coli [15] = test: microbe, parasite or virus in culture; remark: listed apart in the source
Escherichia coli [16] = test: microbe, parasite or virus in culture; remark: listed apart in the source
Escherichia coli [17] = test: microbe, parasite or virus in culture; remark: listed apart in the source
Escherichia coli [18] = test: microbe, parasite or virus in culture; remark: listed apart in the source
Escherichia coli [19] = test: microbe, parasite or virus in culture; remark: listed apart in the source
Escherichia coli [20] = test: microbe, parasite or virus in culture; remark: listed apart in the source
Escherichia coli [21] = test: microbe, parasite or virus in culture; remark: listed apart in the source
Escherichia coli [22] = test: microbe, parasite or virus in culture; remark: listed apart in the source
Escherichia coli [23] = test: microbe, parasite or virus in culture; remark: listed apart in the source
Escherichia coli [24] = test: microbe, parasite or virus in culture; remark: listed apart in the source
Escherichia coli [25] = test: microbe, parasite or virus in culture; remark: listed apart in the source
Escherichia coli [26] = test: microbe, parasite or virus in culture; remark: listed apart in the source

SMILES	MIC (Escherichia coli [1]) [µg/mL]	MIC (Escherichia coli [2]) [µg/mL]	half-life [3] [h]	MIC (Escherichia coli [4]) [µg/mL]	MIC (Escherichia coli [5]) [µg/mL]	MIC (Escherichia coli [6]) [µg/mL]	MIC (Escherichia coli [7]) [µg/mL]	MIC (Escherichia coli [8]) [µg/mL]	also measured
CC(C)(O/N=C(\C(=O)N[C@@H]1C(=O)N(S(=O)(=O)O)[C@@H]1Cn1nccn1)c1csc(N)n1)C(=O)O (stereo in doubt)	1 (≈ 1.99 µM)	0.5 (≈ 0.995 µM)	978	0.5 (≈ 0.995 µM)	0.5 (≈ 0.995 µM)	1 (≈ 1.99 µM)	2 (≈ 3.98 µM)	8 (≈ 15.9 µM)	–
CC(C)(O/N=C(\C(=O)N[C@@H]1C(=O)N(S(=O)(=O)O)[C@@H]1CN1CCNC1=O)c1csc(N)n1)C(=O)O (stereo in doubt)	1 (≈ 1.92 µM)	1 (≈ 1.92 µM)	> 1000	0.5 (≈ 0.962 µM)	1 (≈ 1.92 µM)	1 (≈ 1.92 µM)	4 (≈ 7.7 µM)	2 (≈ 3.85 µM)	–
CC(C)(O/N=C(\C(=O)N[C@@H]1C(=O)N(S(=O)(=O)O)[C@@H]1CN1CCCC1=O)c1csc(N)n1)C(=O)O (stereo in doubt)	2 (≈ 3.86 µM)	1 (≈ 1.93 µM)	> 1000	1 (≈ 1.93 µM)	2 (≈ 3.86 µM)	2 (≈ 3.86 µM)	4 (≈ 7.71 µM)	16 (≈ 30.9 µM)	–
CC(C)(O/N=C(/C(=O)N[C@@H]1C(=O)N(S(=O)(=O)O)[C@@H]1CF)c1csc(N)n1)C(=O)O (stereo in doubt)	1 (≈ 2.21 µM)	0.125 (≈ 0.276 µM)	990	0.125 (≈ 0.276 µM)	0.25 (≈ 0.551 µM)	32 (≈ 70.6 µM)	–	4 (≈ 8.82 µM)	MIC (Escherichia coli [9]): 0.06 µg/mL (≈ 0.132 µM)
CO/N=C(\C(=O)N[C@@H]1C(=O)N2C(C(=O)[O-])=C(C[N+]3(C)CCCC3)CS[C@H]12)c1csc(N)n1	–	–	–	≤ 0.03	16 (≈ 33.3 µM)	–	1 (≈ 2.08 µM)	–	MIC (Escherichia coli [10]): 1 µg/mL (≈ 2.08 µM); MIC (Escherichia coli [11]): 4 µg/mL (≈ 8.32 µM); MIC (Escherichia coli [12]): 4 µg/mL (≈ 8.32 µM); MIC (Escherichia coli [13]): 0.125 µg/mL (≈ 0.26 µM); MIC (Escherichia coli [14]): 1 µg/mL (≈ 2.08 µM); MIC (Escherichia coli [15]): 0.25 µg/mL (≈ 0.52 µM); MIC (Escherichia coli [16]): 0.25 µg/mL (≈ 0.52 µM); MIC (Escherichia coli [17]): 1 µg/mL (≈ 2.08 µM); MIC (Escherichia coli [18]): 4 µg/mL (≈ 8.32 µM); MIC (Escherichia coli [19]): 16 µg/mL (≈ 33.3 µM); MIC (Escherichia coli [20]): 0.125 µg/mL (≈ 0.26 µM); MIC (Escherichia coli [21]): 0.125 µg/mL (≈ 0.26 µM); MIC (Escherichia coli [22]): 0.125 µg/mL (≈ 0.26 µM); MIC (Escherichia coli [23]): 0.25 µg/mL (≈ 0.52 µM); MIC (Escherichia coli [9]): 0.125 µg/mL (≈ 0.26 µM); MIC (Escherichia coli [24]): 0.25 µg/mL (≈ 0.52 µM); MIC (Escherichia coli [25]): 0.125 µg/mL (≈ 0.26 µM); MIC (Escherichia coli [26]): 1 µg/mL (≈ 2.08 µM)
Cc1nnn(C[C@@H]2[C@H](NC(=O)/C(=N\OC(C)(C)C(=O)O)c3csc(N)n3)C(=O)N2S(=O)(=O)O)n1 (stereo in doubt)	8 (≈ 15.5 µM)	2 (≈ 3.86 µM)	–	2 (≈ 3.86 µM)	1 (≈ 1.93 µM)	8 (≈ 15.5 µM)	8 (≈ 15.5 µM)	8 (≈ 15.5 µM)	–
CC(C)(O/N=C(\C(=O)N[C@@H]1C(=O)N(S(=O)(=O)O)[C@@H]1CN1CCCCC1=O)c1csc(N)n1)C(=O)O (stereo in doubt)	8 (≈ 15 µM)	8 (≈ 15 µM)	214	4 (≈ 7.51 µM)	8 (≈ 15 µM)	4 (≈ 7.51 µM)	4 (≈ 7.51 µM)	16 (≈ 30 µM)	–
CC(C)(O/N=C(\C(=O)N[C@@H]1C(=O)N(S(=O)(=O)O)[C@@H]1CNC(=O)CN)c1csc(N)n1)C(=O)O (stereo in doubt)	4 (≈ 7.88 µM)	0.125 (≈ 0.246 µM)	149	0.25 (≈ 0.493 µM)	0.25 (≈ 0.493 µM)	8 (≈ 15.8 µM)	2 (≈ 3.94 µM)	0.5 (≈ 0.985 µM)	–
CC(C)(O/N=C(\C(=O)N[C@@H]1C(=O)N(S(=O)(=O)O)[C@@H]1CN1CCOC1=O)c1csc(N)n1)C(=O)O (stereo in doubt)	0.5 (≈ 0.961 µM)	0.5 (≈ 0.961 µM)	483	0.5 (≈ 0.961 µM)	0.5 to 1 (≈ 0.961 to 1.92 µM)	1 (≈ 1.92 µM)	2 (≈ 3.84 µM)	2 (≈ 3.84 µM)	MIC (Escherichia coli [20]): 4 µg/mL (≈ 7.68 µM)
CC(C)(O/N=C(/C(=O)N[C@@H]1C(=O)N(OS(=O)(=O)O)C1(C)C)c1csc(N)n1)C(=O)O (stereo in doubt)	0.25 (≈ 0.537 µM)	0.25 (≈ 0.537 µM)	100	0.25 (≈ 0.537 µM)	1 (≈ 2.15 µM)	> 32	–	0.5 (≈ 1.07 µM)	MIC (Escherichia coli [9]): 0.25 µg/mL (≈ 0.537 µM)
CN(C[C@@H]1[C@H](NC(=O)/C(=N\OC(C)(C)C(=O)O)c2csc(N)n2)C(=O)N1S(=O)(=O)O)C(=O)CN (stereo in doubt)	8 (≈ 15.3 µM)	4 (≈ 7.67 µM)	212	4 (≈ 7.67 µM)	4 (≈ 7.67 µM)	4 (≈ 7.67 µM)	–	16 (≈ 30.7 µM)	–
CC(C)(O/N=C(\C(=O)N[C@@H]1C(=O)N(S(=O)(=O)O)[C@@H]1Cn1ccnn1)c1csc(N)n1)C(=O)O (stereo in doubt)	2 (≈ 3.98 µM)	0.5 (≈ 0.995 µM)	257	0.5 (≈ 0.995 µM)	1 (≈ 1.99 µM)	4 (≈ 7.96 µM)	2 (≈ 3.98 µM)	2 to 4 (≈ 3.98 to 7.96 µM)	MIC (Escherichia coli [20]): 8 µg/mL (≈ 15.9 µM)
CC(C)(O/N=C(\C(=O)N[C@@H]1C(=O)N(S(=O)(=O)O)[C@@H]1CN1CCC1=O)c1csc(N)n1)C(=O)O (stereo in doubt)	4 (≈ 7.93 µM)	2 (≈ 3.96 µM)	> 1000	2 (≈ 3.96 µM)	4 (≈ 7.93 µM)	8 (≈ 15.9 µM)	16 (≈ 31.7 µM)	64 (≈ 127 µM)	–
CC(C)(O/N=C(\C(=O)N[C@@H]1C(=O)N(S(=O)(=O)O)[C@@H]1Cn1ccc(N)n1)c1csc(N)n1)C(=O)O (stereo in doubt)	> 64	> 64	3.5	> 64	> 64	> 64	> 64	> 64	–
CC(C)(O/N=C(\C(=O)N[C@@H]1C(=O)N(S(=O)(=O)O)[C@@H]1Cn1cnnc1)c1csc(N)n1)C(=O)O (stereo in doubt)	16 (≈ 31.8 µM)	1 (≈ 1.99 µM)	113	1 (≈ 1.99 µM)	1 (≈ 1.99 µM)	16 (≈ 31.8 µM)	32 (≈ 63.7 µM)	2 (≈ 3.98 µM)	–
